Source: patent US20130053347A1, “PRO-DRUGS OF AMARYLLIDACEAE ISOCARBOSTYRIL PRODUCTS AND THEIR USE AGAINST BRAIN TUMORS” (Universite Libre de Bruxelles, priority 2010, published 2013)

Legend:
[1] = tested on: Hs683 human glioblastoma cells grafted into the brain of nude mice; assay: human glioblastoma orthotopic model, survival; format: in vivo; settings: 1 mg/kg once or twice per week during 5 consecutive weeks, intravenous or oral; two glioblastoma models (Hs683; GL-19 in FIG. 5)
Protocol: FIG. 5: anti-tumor effects of Narciclasine versus temozolomide in human primary brain tumor models. A and B: hematoxilin eosin staining of the brain tumors that developed into the brain of nude mice after intracranial graft of Hs683 and GL-19 human glioblastoma cells (NB: normal brain). Anti-tumor effects were evaluated in terms of animal survival in C and D. TMZ: temozolomide; schedule of administration is mentioned between brackets (“aXb” meaning “a” administrations per week during “b” weeks).
We evaluated the anti-cancer effects of Narciclasine at non toxic dose in two human glioblastoma (primary brain tumors) models (Hs683-model) that we grafted orthotopically directly into the brain of nude mice. […] The therapeutic schedule used here is even lower (one or two injections per week instead of 5 per week) and the administration route was intravenous or oral. […] The few promising NCI results have been obtained at doses higher than 1 mg/kg administered intraperitoneally or subcutaneously.

[2] = tested on: human NSCLC A549 cells grafted into the lungs of nude mice; assay: NSCLC model, cells grafted into the lungs, survival; format: in vivo; settings: A549 in lungs; Taxol 20 mg/kg, Narciclasine 1 mg/kg once per week during 5 consecutive weeks
Protocol: (§1) FIG. 6: anti-tumor effects of Narciclasine versus taxol in human NSCLC (non small cell lung carcinoma) models. The left panel illustrates the lungs of mice bearing lung tumor (tumor tissue is the white nodular one; pink part is the residual normal lung tissue) and hematoxilin eosin staining of the lung tumor (middle) and the brain metastasis that developed into the brain of nude mice after the graft of A549 human NSCLC cells into the lung (lower panel). Anti-tumor effects were evaluated in terms of animal survival when cells are grafted into the lungs (upper right graph) or directly into the brain (right lower panel). Taxol (dose: 20 mg/kg) and Narciclasine (dose: 1 mg/kg) were administered once per week during 5 consecutive weeks.
(§2) We tested also the anti-cancer effects of Narciclasine in non small cell lung carcinoma models (NSCLC). When human NSCLC A549 cells are grafted into the lungs of nude mice, those later develop lung tumors leading after to liver and brain metastases in 80% of the cases (Mathieu A et al, Cancer 2004).

[3] = tested on: A549 cells grafted directly into the brain of nude mice; assay: NSCLC cells grafted into the brain, survival; format: in vivo, human; settings: A549 in brain; Taxol 20 mg/kg, Narciclasine 1 mg/kg once per week during 5 consecutive weeks
Protocol: as §1, §2

[4] = tested on: human melanoma VM-21 cells grafted subcutaneously; assay: subcutaneous melanoma model, survival; format: in vivo; settings: VM-21 subcutaneous, nude mice; Narciclasine per os
Protocol: FIG. 7: anti-tumor effects of Narciclasine in human melanoma models. The left panel illustrates typical hematoxilin eosin staining of subcutaneous tumor and lung metastasis developed when VM-21 human melanoma cells are grafted subcutaneously in nude mice and their corresponding survival analysis. Narciclasine was administered per os while dacarbazine was administered intra-peritoneally. Doses and schedules appear on the graphs (ai X bw meaning “a” administrations per week during “b” weeks). The right panel illustrates typical hematoxilin eosin staining of human melanoma brain tumor developed into the brain when VM-48 human brain metastatic melanoma cells are grafted into the brain of nude mice and their corresponding survival analysis. Narciclasine and temozolomide (TMZ) were administered per os. Doses and schedules appear on the graphs (same legend than left panel).
Similarly, we grafted subcutaneously human melanoma VM-21 cells. This graft leads to tumor formation and further lung metastases as illustrated in FIG. 7. […] VM-48 cells have been isolated from a human brain metastasis of melanoma. We grafted those cells in their original environment, i.e. the brain to mimic human melanoma brain metastasis (FIG. 7).

[5] = tested on: VM-48 human brain metastatic melanoma cells grafted into the brain of nude mice; assay: melanoma brain metastasis model, survival; format: in vivo; settings: VM-48 in brain; intravenously 1 mg/kg twice a week during 3 consecutive weeks
cancer cells = settings: cited from earlier work
mice = settings: cited from earlier work
[6] = cited from earlier work

| SMILES | therapeutic benefit in terms of survival [1] | survival of the animals [2] | survival benefits [3] | survival benefit [4] | animal survival [5] | IC50 (cancer cells) [nM] | maximal dose that can be administered without being toxic (mice; mice) | safe chronical dose (mice; mice) [mg/kg] | toxicity (mice; rodents, 1 mg/kg 5 times per week during three weeks at least) | plasmatic concentrations ([6]; 5 mg/kg dose, for few hours only) [nM] | oral bioavailability ([6]; mouse, in vivo, po) [%] |
| --- | --- | --- | --- | --- | --- | --- | --- | --- | --- | --- | --- |
| O=C1N[C@@H]2C(=C[C@H](O)[C@@H](O)[C@H]2O)c2cc3c(c(O)c21)OCO3 [Narciclasine] | significant and comparable therapeutic benefits | did not bring any increase in the survival | highly and significantly effective | could not bring any survival benefit | significant increase in terms of animal survival | 50 | around 1 mg/kg | 1 | without any toxicity | > 50 | 32 |
| CC(=O)O[C@H]1C(=O)[C@@]2(C)[C@H]([C@H](OC(=O)c3ccccc3)[C@]3(O)C[C@H](OC(=O)[C@H](O)[C@@H](NC(=O)c4ccccc4)c4ccccc4)C(C)=C1C3(C)C)[C@]1(OC(C)=O)CO[C@@H]1C[C@@H]2O [taxol] |  | did significantly | became inefficient |  |  |  |  |  |  |  |  |
